Measured values taken from patent publication US20250145665A1, “MACROCYCLIC PEPTIDES USEFUL AS MODULATORS OF TNF ALPHA” (Bristol-Myers Squibb Company, priority 2023, published 2025).
Starred links: 1 amine or outer side, 2 acyl side, 3 side chain; linkers in the order of their positions; H or OH if unused. Positions of bridges follow the written chain, without caps; N, C: chain ends. Non-standard residues stand in square brackets, D forms with d. Residues, ends and D or L forms follow the SMILES beside them. ξ: configuration not given here. *: point of attachment. X46 = O=C(Cc1cccc(C(=O)O)c1)Nc1ccc(-c2ccc(C[C@H](N[*:1])C(=O)[*:2])cc2)cc1; X38 = O=C(O)C1CCC(C(=O)Nc2ccc(-c3ccc(C[C@H](N[*:1])C(=O)[*:2])cc3)cc2)CC1; X79 = O=C(O)C1CCCC(C(=O)Nc2ccc(-c3ccc(C[C@H](N[*:1])C(=O)[*:2])cc3)cc2)C1; X37 = O=C(Nc1ccc(-c2ccc(C[C@H](N[*:1])C(=O)[*:2])cc2)cc1)c1ccc2ccccc2c1; X40 = O=C(O)C1CCCCC1C(=O)Nc1ccc(-c2ccc(C[C@H](N[*:1])C(=O)[*:2])cc2)cc1; X73 = O=C(O)CCCC(=O)Nc1ccc(-c2ccc(C[C@H](N[*:1])C(=O)[*:2])cc2)cc1; X64 = O=C(O)CCC(=O)Nc1ccc(-c2ccc(C[C@H](N[*:1])C(=O)[*:2])cc2)cc1; Bip(4'-NH) = O=C([C@H](Cc1ccc(-c2ccc(N[*:3])cc2)cc1)N[*:1])[*:2]; Bip(4'-COOH) = N[C@@H](Cc1ccc(-c2ccc(C(=O)O)cc2)cc1)C(=O)O; Bip(4'-NHAc) = CC(=O)Nc1ccc(-c2ccc(C[C@H](N)C(=O)O)cc2)cc1; X49 = O=C([C@H](Cc1ccc(-c2cccc(N[*:3])c2)cc1)N[*:1])[*:2]; Ala(morpholin-4-yl) = N[C@@H](CN1CCOCC1)C(=O)O; Phe(3-CONH2) = NC(=O)c1cccc(C[C@H](N)C(=O)O)c1; Bip = N[C@@H](Cc1ccc(-c2ccccc2)cc1)C(=O)O; X24 = O=C(O)COc1cc(-c2ccccc2)ccc1C(=O)*; X31 = Cn1c(C(=O)*)cc2cccc(Cl)c21; X57 = Cn1c(C(=O)*)cc2c(Cl)cccc21; X32 = O=C(c1sc2cccc(Cl)c2c1Cl)*; Cha = N[C@@H](CC1CCCCC1)C(=O)O; Chg = N[C@H](C(=O)O)C1CCCCC1; X50 = O=C(O)COc1ccccc1C(=O)*; ξE = NC(CCC(=O)O)C(=O)O; Sar = CNCC(=O)O

target: TNFα (Homo sapiens, UniProt P01375); assay: TNF-Induced HEK-Blue Assay; type: cell-based; conditions: HEK-Blue-CD40L cells, NF-kB-driven secreted alkaline phosphatase reporter; TNFα 0.5 ng/ml; 18 h; read-out: TNF induced HEK-Blue assay IC50 value
Sequence (P01375 77-233 limits assumed): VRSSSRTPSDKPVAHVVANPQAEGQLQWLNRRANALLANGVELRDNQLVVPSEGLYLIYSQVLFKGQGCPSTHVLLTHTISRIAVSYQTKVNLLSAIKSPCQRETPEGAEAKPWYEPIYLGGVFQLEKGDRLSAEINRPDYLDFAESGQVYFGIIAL

| Compound | IC50 [nM] |
| --- | --- |
| CC[C@H](C)[C@@H]1NC(=O)[C@@H](CCCNC(=N)N)NC(=O)[C@H](CC(=O)O)NC(=O)[C@H](Cc2cnc[nH]2)NC(=O)CN(C)C(=O)[C@H](Cc2ccc(-c3ccc(NC(=O)C4CCC(C(=O)O)CC4)cc3)cc2)NC(=O)[C@H](Cc2ccc(-c3ccccc3)cc2)NC(=O)[C@H](CC2CCCCC2)NC(=O)CSC[C@@H](C(=O)NCC(N)=O)NC(=O)[C@H](CC(C)C)NC(=O)[C@H](Cc2cnc[nH]2)NC(=O)[C@H](C(C)C)NC(=O)[C@@H]2CCCN2C1=O (stereo partly drawn) [Example 316] ({CH2CO}-[Cha][Bip][X38][Sar]HD[dR]IPVHLCG-NH2; thioether N-13) | 50 to 200 |
| CC[C@H](C)[C@@H]1NC(=O)[C@@H](CCCNC(=N)N)NC(=O)[C@H](CC(=O)O)NC(=O)[C@H](Cc2cnc[nH]2)NC(=O)CN(C)C(=O)[C@H](Cc2ccc(-c3ccc(NC(=O)C4CCCC(C(=O)O)C4)cc3)cc2)NC(=O)[C@H](Cc2ccc(-c3ccccc3)cc2)NC(=O)[C@H](CC2CCCCC2)NC(=O)CSC[C@@H](C(=O)NCC(N)=O)NC(=O)[C@H](CC(C)C)NC(=O)[C@H](Cc2cnc[nH]2)NC(=O)[C@H](C(C)C)NC(=O)[C@@H]2CCCN2C1=O (stereo partly drawn) [Example 317] ({CH2CO}-[Cha][Bip][X79][Sar]HD[dR]IPVHLCG-NH2; thioether N-13) | 50 to 200 |
| CC[C@H](C)[C@@H]1NC(=O)[C@@H](CCCNC(=N)N)NC(=O)[C@H](CC(=O)O)NC(=O)[C@H](Cc2cnc[nH]2)NC(=O)CN(C)C(=O)[C@H](Cc2ccc(-c3ccc(NC(=O)C4CCCCC4C(=O)O)cc3)cc2)NC(=O)[C@H](Cc2ccc(-c3ccccc3)cc2)NC(=O)[C@H](CC2CCCCC2)NC(=O)CSC[C@@H](C(=O)NCC(N)=O)NC(=O)[C@H](CC(C)C)NC(=O)[C@H](Cc2cnc[nH]2)NC(=O)[C@H](C(C)C)NC(=O)[C@@H]2CCCN2C1=O (stereo partly drawn) [Example 318] ({CH2CO}-[Cha][Bip][X40][Sar]HD[dR]IPVHLCG-NH2; thioether N-13) | 50 to 200 |
| CC[C@H](C)[C@@H]1NC(=O)[C@@H](CCCNC(=N)N)NC(=O)[C@H](CC(=O)O)NC(=O)[C@H](Cc2cnc[nH]2)NC(=O)CN(C)C(=O)[C@H](Cc2ccc(-c3ccc(NC(=O)c4cc5c(Cl)cccc5n4C)cc3)cc2)NC(=O)[C@H](Cc2ccc(-c3ccccc3)cc2)NC(=O)[C@H](CC2CCCCC2)NC(=O)CSC[C@@H](C(=O)NCC(N)=O)NC(=O)[C@H](CC(C)C)NC(=O)[C@H](Cc2cnc[nH]2)NC(=O)[C@H](C(C)C)NC(=O)[C@@H]2CCCN2C1=O [Example 319] ({CH2CO}-[Cha][Bip][Bip(4'-NH)](X57)[Sar]HD[dR]IPVHLCG-NH2; thioether N-13) | 50 to 200 |
| CC(=O)Nc1ccc(-c2ccc(C[C@@H]3NC(=O)[C@H](Cc4ccc(-c5ccc(C(=O)O)cc5)cc4)NC(=O)[C@H](CN4CCOCC4)NC(=O)CSC[C@@H](C(=O)NCC(N)=O)NC(=O)[C@H](CC(C)C)NC(=O)[C@H](Cc4cccc(C(N)=O)c4)NC(=O)[C@H](C4CCCCC4)NC(=O)[C@@H]4CCCN4C(=O)[C@H](C(C)C)NC(=O)[C@@H](CCCNC(=N)N)NC(=O)[C@H](CC(=O)O)NC(=O)[C@@H]4CCCN4C(=O)CN(C)C3=O)cc2)cc1 [Example 320] ({CH2CO}-[Ala(morpholin-4-yl)][Bip(4'-COOH)][Bip(4'-NHAc)][Sar]PD[dR]VP[Chg][Phe(3-CONH2)]LCG-NH2; thioether N-13) | 200 to 2000 |
| CC(=O)Nc1ccc(-c2ccc(C[C@@H]3NC(=O)[C@H](Cc4ccc(-c5ccccc5)cc4)NC(=O)[C@H](CC4CCCCC4)NC(=O)CSC[C@@H](C(=O)NC(CCC(=O)O)C(N)=O)NC(=O)[C@H](CC(C)C)NC(=O)[C@H](Cc4ccc(O)cc4)NC(=O)[C@H](C(C)C)NC(=O)[C@@H]4CCCN4C(=O)[C@H](C(C)C)NC(=O)[C@@H](CCCNC(=N)N)NC(=O)[C@H](CC(=O)O)NC(=O)[C@@H]4CCCN4C(=O)CN(C)C3=O)cc2)cc1 (stereo partly drawn) [Example 321] ({CH2CO}-[Cha][Bip][Bip(4'-NHAc)][Sar]PD[dR]VPVYLC[ξE]-NH2; thioether N-13) | 50 to 200 |
| CC[C@H](C)[C@@H]1NC(=O)[C@@H](CCCNC(=N)N)NC(=O)[C@H](CC(=O)O)NC(=O)[C@H](Cc2cnc[nH]2)NC(=O)CN(C)C(=O)[C@H](Cc2ccc(-c3ccc(NC(=O)c4ccc5ccccc5c4)cc3)cc2)NC(=O)[C@H](Cc2ccc(-c3ccccc3)cc2)NC(=O)[C@H](CC2CCCCC2)NC(=O)CSC[C@@H](C(=O)NCC(N)=O)NC(=O)[C@H](CC(C)C)NC(=O)[C@H](Cc2cnc[nH]2)NC(=O)[C@H](C(C)C)NC(=O)[C@@H]2CCCN2C1=O [Example 322] ({CH2CO}-[Cha][Bip][X37][Sar]HD[dR]IPVHLCG-NH2; thioether N-13) | 50 to 200 |
| CC[C@H](C)[C@@H]1NC(=O)[C@@H](CCCNC(=N)N)NC(=O)[C@H](CC(=O)O)NC(=O)[C@H](Cc2cnc[nH]2)NC(=O)CN(C)C(=O)[C@H](Cc2ccc(-c3ccc(NC(=O)CCC(=O)O)cc3)cc2)NC(=O)[C@H](Cc2ccc(-c3ccccc3)cc2)NC(=O)[C@H](CC2CCCCC2)NC(=O)CSC[C@@H](C(=O)NCC(N)=O)NC(=O)[C@H](CC(C)C)NC(=O)[C@H](Cc2cnc[nH]2)NC(=O)[C@H](C(C)C)NC(=O)[C@@H]2CCCN2C1=O [Example 323] ({CH2CO}-[Cha][Bip][X64][Sar]HD[dR]IPVHLCG-NH2; thioether N-13) | 50 to 200 |
| CC[C@H](C)[C@@H]1NC(=O)[C@@H](CCCNC(=N)N)NC(=O)[C@H](CC(=O)O)NC(=O)[C@H](Cc2cnc[nH]2)NC(=O)CN(C)C(=O)[C@H](Cc2ccc(-c3ccc(NC(=O)CCCC(=O)O)cc3)cc2)NC(=O)[C@H](Cc2ccc(-c3ccccc3)cc2)NC(=O)[C@H](CC2CCCCC2)NC(=O)CSC[C@@H](C(=O)NCC(N)=O)NC(=O)[C@H](CC(C)C)NC(=O)[C@H](Cc2cnc[nH]2)NC(=O)[C@H](C(C)C)NC(=O)[C@@H]2CCCN2C1=O [Example 324] ({CH2CO}-[Cha][Bip][X73][Sar]HD[dR]IPVHLCG-NH2; thioether N-13) | 50 to 200 |
| CC[C@H](C)[C@@H]1NC(=O)[C@@H](CCCNC(=N)N)NC(=O)[C@H](CC(=O)O)NC(=O)[C@H](Cc2cnc[nH]2)NC(=O)CN(C)C(=O)[C@H](Cc2ccc(-c3ccc(NC(=O)c4sc5cccc(Cl)c5c4Cl)cc3)cc2)NC(=O)[C@H](Cc2ccc(-c3ccccc3)cc2)NC(=O)[C@H](CC2CCCCC2)NC(=O)CSC[C@@H](C(=O)NCC(N)=O)NC(=O)[C@H](CC(C)C)NC(=O)[C@H](Cc2cnc[nH]2)NC(=O)[C@H](C(C)C)NC(=O)[C@@H]2CCCN2C1=O [Example 325] ({CH2CO}-[Cha][Bip][Bip(4'-NH)](X32)[Sar]HD[dR]IPVHLCG-NH2; thioether N-13) | 200 to 2000 |
| CC[C@H](C)[C@@H]1NC(=O)[C@@H](CCCNC(=N)N)NC(=O)[C@H](CC(=O)O)NC(=O)[C@H](Cc2cnc[nH]2)NC(=O)CN(C)C(=O)[C@H](Cc2ccc(-c3ccc(NC(=O)c4cc5cccc(Cl)c5n4C)cc3)cc2)NC(=O)[C@H](Cc2ccc(-c3ccccc3)cc2)NC(=O)[C@H](CC2CCCCC2)NC(=O)CSC[C@@H](C(=O)NCC(N)=O)NC(=O)[C@H](CC(C)C)NC(=O)[C@H](Cc2cnc[nH]2)NC(=O)[C@H](C(C)C)NC(=O)[C@@H]2CCCN2C1=O [Example 326] ({CH2CO}-[Cha][Bip][Bip(4'-NH)](X31)[Sar]HD[dR]IPVHLCG-NH2; thioether N-13) | 50 to 200 |
| CC(C)C[C@@H]1NC(=O)[C@H](CCCNC(=N)N)NC(=O)[C@H](C(C)C)NC(=O)[C@@H]2CCCN2C(=O)[C@H](C(C)C)NC(=O)[C@@H](CCCNC(=N)N)NC(=O)[C@H](CC(=O)O)NC(=O)[C@@H]2CCCN2C(=O)CN(C)C(=O)[C@H](Cc2ccc(-c3cccc(NC(=O)c4ccccc4OCC(=O)O)c3)cc2)NC(=O)[C@H](Cc2ccc(-c3ccccc3)cc2)NC(=O)[C@H](CN2CCOCC2)NC(=O)CSC[C@@H](C(=O)NCC(N)=O)NC1=O [Example 327] ({CH2CO}-[Ala(morpholin-4-yl)][Bip][X49](X50)[Sar]PD[dR]VPVRLCG-NH2; thioether N-13) | 50 to 200 |
| CC[C@H](C)[C@@H]1NC(=O)[C@@H](CCCNC(=N)N)NC(=O)[C@H](CC(=O)O)NC(=O)[C@H](Cc2cnc[nH]2)NC(=O)CN(C)C(=O)[C@H](Cc2ccc(-c3ccc(NC(=O)Cc4cccc(C(=O)O)c4)cc3)cc2)NC(=O)[C@H](Cc2ccc(-c3ccccc3)cc2)NC(=O)[C@H](CC2CCCCC2)NC(=O)CSC[C@@H](C(=O)NCC(N)=O)NC(=O)[C@H](CC(C)C)NC(=O)[C@H](Cc2cnc[nH]2)NC(=O)[C@H](C(C)C)NC(=O)[C@@H]2CCCN2C1=O [Example 328] ({CH2CO}-[Cha][Bip][X46][Sar]HD[dR]IPVHLCG-NH2; thioether N-13) | 50 to 200 |
| CC[C@H](C)[C@@H]1NC(=O)[C@@H](CCCNC(=N)N)NC(=O)[C@H](CC(=O)O)NC(=O)[C@H](Cc2cnc[nH]2)NC(=O)CN(C)C(=O)[C@H](Cc2ccc(-c3ccc(NC(=O)c4ccccc4OCC(=O)O)cc3)cc2)NC(=O)[C@H](Cc2ccc(-c3ccccc3)cc2)NC(=O)[C@H](CC2CCCCC2)NC(=O)CSC[C@@H](C(=O)NCC(N)=O)NC(=O)[C@H](CC(C)C)NC(=O)[C@H](Cc2cnc[nH]2)NC(=O)[C@H](C(C)C)NC(=O)[C@@H]2CCCN2C1=O [Example 329] ({CH2CO}-[Cha][Bip][Bip(4'-NH)](X50)[Sar]HD[dR]IPVHLCG-NH2; thioether N-13) | < 50 |
| CC[C@H](C)[C@@H]1NC(=O)[C@@H](CCCNC(=N)N)NC(=O)[C@H](CC(=O)O)NC(=O)[C@H](Cc2cnc[nH]2)NC(=O)CN(C)C(=O)[C@H](Cc2ccc(-c3ccc(NC(=O)c4ccc(-c5ccccc5)cc4OCC(=O)O)cc3)cc2)NC(=O)[C@H](Cc2ccc(-c3ccccc3)cc2)NC(=O)[C@H](CC2CCCCC2)NC(=O)CSC[C@@H](C(=O)NCC(N)=O)NC(=O)[C@H](CC(C)C)NC(=O)[C@H](Cc2cnc[nH]2)NC(=O)[C@H](C(C)C)NC(=O)[C@@H]2CCCN2C1=O [Example 330] ({CH2CO}-[Cha][Bip][Bip(4'-NH)](X24)[Sar]HD[dR]IPVHLCG-NH2; thioether N-13) | 50 to 200 |
